Laboratory results from patent CN101260112A, “含噻吩并[3.2-c]吡啶的乙酰肼衍生物及其制备方法和用途” (Tianjin Institute of Pharmaceutical Research Co Ltd, priority 2008, dated 2008).

Tested on: ADP-induced platelet aggregation (ADP诱导的血小板聚集)
Assay: Effect of compounds of formula I on ADP-induced platelet aggregation (rats dosed orally, turbidimetric method)
Format: in vivo
Conditions: male Wistar rat, 10 mg/kg oral gavage, blood taken 2 h after dosing, inducer ADP (final concentration 5 μM), turbidimetry, 37℃; for inhibition at 10 mg/kg: Platelet, vs control, read-out: inhibition rate; for maximum aggregation: control 54.8±5.8

SMILES	inhibition at 10 mg/kg [%]	maximum aggregation
NNC(=O)C(c1ccc(F)cc1)N1CCc2sccc2C1 (stereo not drawn) [化合物1, α,α-[(4-氟苯基)-(4,5,6,7-四氢噻吩并[3,2-c]吡啶-5-基)]乙酰肼]	48.2	28.4±8.1
CC(C)=NNC(=O)C(c1ccc(Cl)cc1)N1CCc2sccc2C1 (stereo not drawn) [化合物2, α,α-[(4-氯苯基)-(4,5,6,7-四氢噻吩并[3,2-c]吡啶-5-基)]-N′-(二甲基甲叉基)乙酰肼]	58.8	22.6±3.9
O=C(NN=Cc1ccccc1Cl)C(c1cccc(Cl)c1)N1CCc2sccc2C1 (stereo not drawn) [化合物3, α,α-[(3-氯苯基)-(4,5,6,7-四氢噻吩并[3,2-c]吡啶-5-基)]-N′-[(2-氯苯基)甲叉基]乙酰肼]	18.2	44.8±11.1
Cc1ccc(C=NNC(=O)C(c2ccc(Cl)cc2)N2CCc3sccc3C2)cc1 (stereo not drawn) [化合物4, α,α-[(4-氯苯基)-(4,5,6,7-四氢噻吩并[3,2-c]吡啶-5-基)]-N′-[(4-甲基苯基)甲叉基]乙酰肼]	34.3	36.0±6.9
O=C(NN=Cc1ccccc1O)C(c1cccc(F)c1)N1CCc2sccc2C1 (stereo not drawn) [化合物5, α,α-[(3-氟苯基)-(4,5,6,7-四氢噻吩并[3,2-c]吡啶-5-基)]-N′-[(2-羟基苯基)甲叉基]乙酰肼]	33.5	38.7±10.6
COc1ccc(C=NNC(=O)C(c2cccc(F)c2)N2CCc3sccc3C2)cc1 (stereo not drawn) [化合物6, α,α-[(3-氟苯基)-(4,5,6,7-四氢噻吩并[3,2-c]吡啶-5-基)]-N′-[(4-甲氧基苯基)甲叉基]乙酰肼]	32.5	33.9±12.3
O=C(NN=Cc1cccc([N+](=O)[O-])c1)C(c1ccc(Cl)c(Cl)c1)N1CCc2sccc2C1 (stereo not drawn) [化合物7, α,α-[(3,4-二氯苯基)-(4,5,6,7-四氢噻吩并[3,2-c]吡啶-5-基)]-N′-[(3-硝基苯基)甲叉基]乙酰肼]	23.3	36.0±9.3
O=C(NN=Cc1ccc(-c2ccc(Cl)cc2)o1)C(c1cccc(Cl)c1)N1CCc2sccc2C1 (stereo not drawn) [化合物8, α,α-[(3-氯苯基)-(4,5,6,7-四氢噻吩并[3,2-c]吡啶-5-基)]-N′-[[5-(4-氯苯)呋喃-2-基]甲叉基]乙酰肼]	64.4	38.7±10.9
O=C(NN=Cc1ccco1)C(c1cccc(F)c1)N1CCc2sccc2C1 (stereo not drawn) [化合物9, α,α-[(3-氟苯基)-(4,5,6,7-四氢噻吩并[3,2-c]吡啶-5-基)]-N′-[(呋喃-2-基)甲叉基]乙酰肼]	28.6	41.0±13.4
CCCCc1nc(Cl)c(C=NNC(=O)C(c2cccc(Cl)c2)N2CCc3sccc3C2)[nH]1 (stereo not drawn) [化合物10, α,α-[(3-氯苯基)-(4,5,6,7-四氢噻吩并[3,2-c]吡啶-5-基)]-N′-[[(2-正丁基-4-氯-咪唑-5-基)甲叉基]乙酰肼]	39	42.9±12.6
O=C(NN=C1CCCCC1)C(c1cccc(Cl)c1)N1CCc2sccc2C1 (stereo not drawn) [化合物11, α,α-[(3-氯苯基)-(4,5,6,7-四氢噻吩并[3,2-c]吡啶-5-基)]-N′-(环己叉基)乙酰肼]	43.1	31.2±12.1
O=C(NN=C1CCCc2ccccc21)C(c1ccc(Cl)cc1)N1CCc2sccc2C1 (stereo not drawn) [化合物12, α,α-[(4-氯苯基)-(4,5,6,7-四氢噻吩并[3,2-c]吡啶-5-基)]-N′-(α-四氢萘叉基)乙酰肼]	35.3	36.2±7.4
COC(=O)[C@H](c1ccccc1Cl)N1CCc2sccc2C1 [硫酸氯吡格雷, reference compound]	–	9.1±3.5
